Experimental data published in paper PMC10927086, “Effects of structurally distinct human HDAC6 and HDAC6/HDAC8 inhibitors against S. mansoni larval and adult worm stages” (PLOS Neglected Tropical Diseases, 2024).
Where “and” joins values, the source holds several entries; their conditions need not be identical. Identical values can stand only once. Like-named read-outs stand apart in the source and are kept apart here.

Assays:
[1] = system: adult S. mansoni worm pairs; assay: Viability assay on adult worm pairs (phenotype scoring 0-3); type: cell-based, Schistosoma mansoni; conditions: for viability at 20 µM / viability at 50 µM: Schistosoma mansoni
Procedure: For studies on adult worm pairs, mice infected 7–8 weeks previously with double sex cercariae were euthanized with intraperitoneal injections of Tiletamine/Zolazepam ([…]) + Xylazine (100 mg/kg) and adult parasites were harvested by reversed perfusion of the hepatic portal system and mesenteric veins. Adult worms were cultured in DMEM containing phenol red and with 4500 mg/l glucose, 2 mM L-glutamine, 100 U/ml penicillin, 100 μg/ml streptomycin, 1x antibiotic-antimycotic reagent, and 10% heat inactivated FBS. Viability assays on adult worm pairs were based on a phenotyping scoring assessment as previously described. Briefly, five adult pairs were incubated with selected compounds in 3 ml of DMEM complete medium. For each compound, three experiments were performed, and compounds were given to parasites only once without medium addition and/or replacement. DMSO (vehicle)-treated worms were used as control samples. Viability was monitored under a Leica Model MZ12 stereomicroscope for 7 days and viability scores (0–3) were assigned. […] For each sample, the total score was determined by the ratio of the sum of worm scores for the total number of worms.
Fig 3 Schistosome viability assays. Panel A: Representative dose-response curves of the inhibitors on NTS. The y-axis indicates the percentage of viability normalized against DMSO (100%) and gambogic acid 10 μM (0%). […] Panel B: dose-response curve of the inhibitors on adult schistosome worm pairs. DMSO (vehicle) was used as negative control (100% viability), the indicated compounds were assayed at 5 (full triangle) 10 (inverted full triangle), 20 (full square) and 50 μM (full circle). Data are expressed as a % severity score (viability) relative to DMSO. Each point represents the average ± standard deviation of three independent experiments.
Parasites were treated initially at 20 μM and 50 μM; their impact on viability was monitored for 7 days upon treatment. […] Viability of each schistosome was scored from 3 (no effect) to 0 (severe effects) by assigning daily worm phenotype scores (plate attachment, movement, color, gut peristalsis, tegument damage) as previously described (Fig 3B).

[2] = system: tubulin of S. mansoni adult worm pairs; assay: Western blot, tubulin acetylation in adult worm pairs; type: cell-based, Schistosoma mansoni; conditions: 48 h and 72 h, partially lethal and sub-lethal doses
Procedure: Ten adult pairs were treated with selected HDAC inhibitors for 48 h or 72 h at partially lethal and sublethal concentrations. Compound concentrations were selected based on the viability curve, Trichostatin A (TSA), a pan-HDAC inhibitor, and NF2503 a SmHDAC8 inhibitor chemically characterized by the presence of a hydroxamate-based MBG (metal binding group) coupled to a tricyclic thieno[3,2-b]indole core as capping group, previously described were used as positive controls in the experiments; DMSO (vehicle) was the negative control. Parasites were processed as previously described and samples were analyzed by 15% SDS-PAGE, and immunoblotting was performed using α-tubulin DM1A (1:5000), α-acetylated-lysine (1:4000) and α-acetylated tubulin (1:3000) antibodies. A Chemidoc XRS Bio-Rad with a chemiluminescent camera and Bio-Rad ImageLab 4.0 software were used for the acquisition and analysis of images. Each Western blot analysis was calibrated by Ponceau staining.
TSA, a known pan- class I and class II HDAC -inhibitor, and NF2503, a HDAC inhibitor previously shown to impact histone acetylation in adult worm pairs were used as positive controls.
Fig 6 Effects of selected compounds on histones and tubulin acetylation. […]

[3] = MTT cytotoxicity assay on BJ fibroblasts; type: cell-based; conditions: human, BJ fibroblast cells, compounds 100-0.78 μM, GA 10-0.078 μM, 2 independent experiments
Procedure: The NCTC clone 929 (L-929) murine fibroblast isolated from subcutaneous connective tissue (ATCC-CCL-1) were cultured in Dulbecco’s Modified Eagle Medium (DMEM) supplemented with 10 mM Hepes (pH 6.98–7.30), 1 mM l-glutamine, 100 U/ml of penicillin/streptomycin (BioWhittaker, Lonza, EuroClone SpA), and heat-inactivated 10% FBS. All cells were cultured at 37°C in a 5% CO2 humidified incubator.
The MTT method was employed as previously described to determine the viability of fibroblast cell lines. Briefly, cells seeded into 96-well plates at a density of 20,000 cells/well after overnight incubation, were exposed to selected compounds at the indicated concentrations for 24–72 h. Next they were gently washed, incubated with MTT (bromuro di 3-(4,5-dimetiltiazol-2-il)-2,5-diphenyltetrazolium) for 4 h, and processed for color detection with DMSO. The resulting purple solution was spectrophotometrically measured at 570 nm using a Varioskan Lux instrument and Skanit software (Thermo Fisher Scientific).
The optical density values for both assays were expressed as a percentage of cell survival and normalized with the value of cells treated with vehicle (DMSO), and the data were analyzed using GraphPad Prism v9.5.1 software (San Diego, CA, USA).
The cytotoxicity of the hit compounds was assessed in two independent experiments on murine L929 and human BJ fibroblasts at 24 h by MTT assays. Vehicle (DMSO) and Gambogic acid (GA) were used as negative and positive control respectively. The compounds show a safe profile on both cell lines (S2 Table).
The IC50(μM) shown was calculated by dose-response curves of the compounds on murine L929 and human BJ fibroblast cells. […] The data are representative of 2 independent experiments. Gambogic acid (GA) and vehicle (DMSO) were used as positive and negative controls respectively. (DOCX)

hHDAC1 = conditions: recombinant enzyme, previously reported; ref [25]; cited from earlier work
hHDAC6 = conditions: recombinant enzyme, previously reported; ref [25]; cited from earlier work
[4] = parameters: method as in earlier work; conditions: QikProp, ref [25], cited from earlier work; for %HOA predicted human oral absorption: 0 to 100% scale, >80% high; for QPlogS predicted aqueous solubility: log value, recommended -6.5-0.5; for SASA predicted total solvent accessible surface: recommended 300-1000, in Å2 (unit assumed); for QPlogP predicted octanol/water partition coefficient: recommended -2-6.5
[5] = 24 h, 20 µM, day 1, read-out: % viability of adult worm pairs relative to DMSO, Mean
[6] = 24 h, 20 µM, day 1, read-out: % viability of adult worm pairs relative to DMSO, single experiments
[7] = 24 h, 50 µM, day 1, read-out: % viability of adult worm pairs relative to DMSO, Mean
[8] = 72 h, 20 µM, day 3, read-out: % viability of adult worm pairs relative to DMSO, Mean
[9] = 72 h, 20 µM, day 3, read-out: % viability of adult worm pairs relative to DMSO, single experiments
[10] = 72 h, 50 µM, day 3, read-out: % viability of adult worm pairs relative to DMSO, Mean
[11] = 120 h, 20 µM, day 5, read-out: % viability of adult worm pairs relative to DMSO, Mean
[12] = 120 h, 20 µM, day 5, read-out: % viability of adult worm pairs relative to DMSO, single experiments
[13] = 120 h, 50 µM, day 5, read-out: % viability of adult worm pairs relative to DMSO, Mean
[14] = 168 h, 20 µM, day 7, read-out: % viability of adult worm pairs relative to DMSO, Mean
[15] = 168 h, 20 µM, day 7, read-out: % viability of adult worm pairs relative to DMSO, single experiments
[16] = 168 h, 50 µM, day 7, read-out: % viability of adult worm pairs relative to DMSO, Mean

Row | Compound | % viability of adult worm pairs relative to DMSO, single experiments ([1]; 20 µM, day 1, 20 µM) | % viability of adult worm pairs relative to DMSO, single experiments ([1]; 20 µM, day 3, 20 µM) | % viability of adult worm pairs relative to DMSO, single experiments ([1]; 20 µM, day 5, 20 µM) | % viability of adult worm pairs relative to DMSO, single experiments ([1]; 20 µM, day 7, 20 µM) | % viability of adult worm pairs relative to DMSO, single experiments ([1]; 50 µM, day 3, 50 µM) | viability at 20 µM [1, 5] [%] | viability at 20 µM [1, 6] [%] | viability at 50 µM [1, 7] [%] | viability at 20 µM [1, 8] [%] | viability at 20 µM [1, 9] [%] | viability at 50 µM [1, 10] [%] | viability at 20 µM [1, 11] [%] | viability at 20 µM [1, 12] [%] | viability at 50 µM [1, 13] [%] | viability at 20 µM [1, 14] [%] | viability at 20 µM [1, 15] [%] | viability at 50 µM [1, 16] [%] | tubulin acetylation vs vehicle (DMSO) [2] | IC50 at 24 h [3] [nM] | IC50 (hHDAC1) [nM] | also measured
1 | CCN(CC)Cc1ccc(Cn2c(=O)c(OCc3ccc(C(=O)NO)cc3)c(-c3cccnc3)c3ccccc32)cc1 [NF2838] | 93.3% and 96% | 86.6% and 96% | 90% and 100% | 85% and 100% | 67% and 70% | 96.4 | 100 | 67.5 | 94.2 | 100 | 58.5 | 96.7 | 100 | 50 | 95 | 100 | 58.5 | increased acetylation | > 100000 | 300 ± 100 | % viability of adult worm pairs relative to DMSO, single experiments ([1]; 50 µM, day 1, 50 µM): 62% and 73%; % viability of adult worm pairs relative to DMSO, single experiments ([1]; 50 µM, day 7, 50 µM): 67%; viability at 50 µM ([1]; 72 h, 50 µM, day 3, read-out: % viability of adult worm pairs relative to DMSO, single experiments): 50%; viability at 50 µM ([1]; 168 h, 50 µM, day 7, read-out: % viability of adult worm pairs relative to DMSO, single experiments): 50%; IC50 (hHDAC6): 11.5 ± 1.5 nM; %HOA predicted human oral absorption [4]: 64.57%; QPlogS predicted aqueous solubility [4]: -4.58 mol/dm^3; SASA predicted total solvent accessible surface [4]: 849.77; QPlogP predicted octanol/water partition coefficient [4]: 3.29
2 | Cn1c(=O)c(OCc2ccc(C(=O)NO)cc2)c(C2CCCCC2)c2ccccc21 [NF2836] | 100% | 100% and 96% | 100% and 96% | 100% | 80% and 60% and 92.59% and 77% | 94.3 | 83 | 62.1 | 98.7 | 100 | 77.4 | 98.7 | 100 | 53.9 | 94.3 | 100 | 53.2 | highest increase in tubulin acetylation | > 100000 | 3000 ± 200 | % viability of adult worm pairs relative to DMSO, single experiments ([1]; 50 µM, day 5, 50 µM): 63% and 43% and 42.59% and 67%; IC50 (hHDAC6): 33 ± 2.6 nM; %HOA predicted human oral absorption [4]: 87.94%; QPlogS predicted aqueous solubility [4]: -5.04 mol/dm^3; SASA predicted total solvent accessible surface [4]: 684.14; QPlogP predicted octanol/water partition coefficient [4]: 3.01
